Assay results taken from patent publication US10556926B2, “Synthetic artificial peptides with antimicrobial effect” (priority 2014, dated 2020).
In brackets after ≈: the same amount, converted by molar mass. Where two headings read alike, the source gives them in different places. No end group written: not given here.

Legend:
Staphylococcus xylosus = details: MHB, 18 hours at 37° C.; mean of four test series
Summary of the method: (§1)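 Broth microdilution MIC per CLSI/EUCAST, adapted for cationic peptides, in Mueller-Hinton broth. Peptides at final 64 to 0.25 μM (2-fold series) with 5·10^4 bacteria/ml, 18 h at 37° C with shaking; growth read as absorbance at 600 nm.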

E. coli DH5α = details: MHB, 18 hours at 37° C.; mean of four test series
Summary of the method: as §1

[1] = test system: human histiocytic lymphoma cell line U937; test: Cytotoxicity, direct membrane damage (CytoTox 96), LD50; type: cell-based; details: U937, two hours at 37° C., 0.25-64 μM
Summary of the method: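 Membrane damage in peptide-treated U937 cells measured as LDH release in culture supernatant (30 min substrate, room temperature, dark; absorbance 490 nm). Negative-control signal subtracted and normalized to permeabilization control. LD50 (μM) from sigmoidal fit of relative cytotoxicity (%) versus peptide concentration at 50%.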

[2] = test system: human histiocytic lymphoma cell line U937; test: Long-term growth inhibition, minimum toxic concentration (MTC)
Summary of the method: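 U937 cells (5·10^4/ml final, RPMI 1640 + 2 mM glutamine + 10% FCS) exposed to peptides at 0.25–64 µM for 2 h at 37 °C, 5% CO2, then cultured at least four further days. MTC taken as the lowest peptide concentration giving complete growth suppression after four days.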

[3] = U937, complete suppression of cell growth after four days

| Compound | MIC S. xylosus (Staphylococcus xylosus) | MIC E. coli (E. coli DH5α) | Toxicity LD50 [1] | Toxicity MTC (minimum toxic concentration) [2, 3] | Toxicity MTC (minimum toxic concentration) [2] |
| --- | --- | --- | --- | --- | --- |
| CC[C@H](C)[C@H](NC(=O)CN)C(=O)NCC(=O)N[C@@H](C)C(=O)N[C@H](C(=O)N[C@@H](CC(C)C)C(=O)N[C@@H](CCCCN)C(=O)N[C@H](C(=O)N[C@@H](CC(C)C)C(=O)N[C@H](C(=O)N[C@H](C(=O)NCC(=O)N[C@@H](CC(C)C)C(=O)N1CCC[C@H]1C(=O)N[C@@H](C)C(=O)N[C@@H](CC(C)C)C(=O)N[C@H](C(=O)N[C@@H](CO)C(=O)N[C@@H](Cc1c[nH]c2ccccc12)C(=O)N[C@H](C(=O)N[C@@H](CCCCN)C(=O)N[C@@H](CCCNC(=N)N)C(=O)N[C@@H](CCCCN)C(=O)N[C@@H](CCCNC(=N)N)C(=O)N[C@@H](CCC(N)=O)C(=O)N[C@@H](CCC(N)=O)C(N)=O)[C@@H](C)CC)[C@@H](C)CC)[C@@H](C)O)[C@@H](C)O)C(C)C)C(C)C [Melittin] | 2 µM (≈ 5.69 µg/mL) | 8 µM (≈ 22.8 µg/mL) | 1.4 µM | 2.0 µM | – |
| ILPWKWPWWPWRR [Indolicidin] | 32 µM | 4 µM | >64 µM | >64 µM | – |
| KILILIKRK-OH [N4] | 16 µM | 32 µM | – | – | >64 µM |
| KRKRKILILIKRK-OH [N1] | 0.5 µM | 8 µM | – | – | 32 µM |
| MPRRRRSSSRPVRRRRRPRVSRRRRRRGGRRR (Protamine) | 0.5 µM | 8 µM | >64 µM | – | 16 µM |
